According to patent US10710986B2, “PD-1/PD-L1 inhibitors” (Gilead Sciences, Inc., priority 2018, dated 2020):

Target: PD-1/PD-L1 (Homo sapiens (Human), UniProt Q9NZQ7)
Test: PD-1/PD-L1 biochemical protein-protein interaction assay (ALPHA)
Conditions: 0.3 nM His tagged PD-L1, 2.5 nM biotinylated Fc-PD-1, 60 minutes at 25° C., read-out: IC50 PD-L1-PD1

Chain of PD-1/PD-L1 (Q9NZQ7 19-238): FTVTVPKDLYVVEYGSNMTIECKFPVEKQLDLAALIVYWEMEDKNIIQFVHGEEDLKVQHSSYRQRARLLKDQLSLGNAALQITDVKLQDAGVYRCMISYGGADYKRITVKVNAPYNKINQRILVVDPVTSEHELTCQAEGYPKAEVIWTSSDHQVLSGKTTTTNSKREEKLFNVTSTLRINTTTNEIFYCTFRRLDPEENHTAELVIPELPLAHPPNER

`COc1nc(-c2cccc(-c3cccc(-c4cnc(CNC[C@@H]5CCC(=O)N5)c(OC)n4)c3Cl)c2Cl)cnc1CNCCO` [compound 374] was tested. Which IC50 did it give?
Its IC50 is 0.183 nM.

Which IC50 does the source give for `COc1nc(-c2cccc(-c3cccc(-c4cnc(CN5CCN[C@@H](C)C5)c(OC)n4)c3Cl)c2Cl)cnc1CNC[C@@H]1CCC(=O)N1` [compound 250] here?
The IC50 was 0.12 nM.

With `COc1nc(-c2cccc(-c3cccc(-c4cc(C)c(CN5C[C@@H]6CCC[C@]6(C(=O)O)C5)c(OC)n4)c3Cl)c2Cl)cnc1CNC[C@@H]1CCC(=O)N1` [compound 655] as the molecule, how does the IC50 read?
The IC50 was 0.064 nM.

With `COc1nc(-c2cccc(-c3cccc(-c4cnc(C5=NCCN5)c(OC)n4)c3Cl)c2Cl)ccc1CN` [compound 582] as the molecule, how does the IC50 read?
Its IC50 is 0.19 nM.

With `COc1nc(-c2cccc(-c3cccc(-c4cnc(CNC[C@H]5CCS(=O)(=O)N5)c(OC)n4)c3Cl)c2Cl)cnc1CNC[C@H]1CCS(=O)(=O)N1` [compound 568] as the molecule, how does the IC50 read?
Its IC50 is 0.293 nM.

Which IC50 does the source give for `COc1nc(-c2cccc(-c3cccc(-c4cnc(CNCCC(=O)O)c(OC)n4)c3Cl)c2Cl)ccc1CNC[C@@H]1CCC(=O)N1` [compound 512] here?
Its IC50 is 0.101 nM.

How did the IC50 turn out when `COc1nc(-c2cccc(-c3cccc(-c4cnc(CN5CC6(C5)CC(O)(C(F)(F)F)C6)c(OC)n4)c3Cl)c2Cl)cnc1CNC[C@@H]1CCC(=O)N1` [compound 308] was run?
Its IC50 is 0.337 nM.

Which IC50 does the source give for `COc1nc(-c2cccc(-c3cccc(-c4cnc(CN5CC[C@H](CO)C5)c(OC)n4)c3Cl)c2Cl)cnc1CN1CC[C@H](CO)C1` [compound 624] here?
The IC50 was 0.152 nM.

`COc1nc(-c2cccc(-c3cccc(-c4cnc(C5=NCC(C)(C)N5)c(OC)n4)c3Cl)c2Cl)cnc1C1=NCC(C)(C)N1` [compound 127] was tested. Which IC50 did it give?
Its IC50 is 0.064 nM.

Which IC50 does the source give for `COc1nc(-c2cccc(-c3cccc(-c4cnc(CNC[C@@H]5CCC(=O)N5)c(OC)n4)c3Cl)c2Cl)cnc1CNCC(=O)NC(C)C` [compound 581] here?
The IC50 was 0.201 nM.

With `COc1nc(-c2cccc(-c3cccc(-c4cnc(CN5CC[C@@H](C(C)(C)O)C5)c(OC)n4)c3Cl)c2Cl)cnc1CNC[C@@H]1CCC(=O)N1` [compound 501] as the molecule, how does the IC50 read?
The IC50 was 0.087 nM.

With `COc1nc(-c2cccc(-c3cccc(-c4ccc5c(CN6CC7(C6)CN(C(C)=O)C7)cn(C)c5n4)c3Cl)c2Cl)cnc1CN1CC2(C1)CN(C(C)=O)C2` [compound 491] as the molecule, how does the IC50 read?
Its IC50 is 0.064 nM.

`CNC(=O)C1CCN(Cc2ncc(-c3cccc(-c4cccc(-c5cnc(CNC[C@@H]6CCC(=O)N6)c(OC)n5)c4Cl)c3Cl)nc2OC)C1` (stereo partly drawn) [compound 472] was tested. Which IC50 did it give?
Its IC50 is 0.066 nM.

`COc1nc(-c2cccc(-c3cccc(-c4cnc(CN5CC(C)(CO)C5)c(OC)n4)c3Cl)c2Cl)cnc1CN1CC(C)(CO)C1` [compound 148] was tested. Which IC50 did it give?
The IC50 was 0.06 nM.

How did the IC50 turn out when `COc1nc(-c2cccc(-c3cccc(-c4cnc(CNC[C@@H]5CCC(=O)N5)c(OC)n4)c3Cl)c2Cl)cnc1CNCCNC(N)=O` [compound 44] was run?
Its IC50 is 0.113 nM.

For `COc1nc(-c2cccc(-c3cccc(-c4ccc5c(CN6CC(O)C6)cn(C)c5n4)c3Cl)c2Cl)cnc1CN1CC(O)C1` [compound 492], which IC50 is on record?
The IC50 was 0.092 nM.

How did the IC50 turn out when `COc1nc(-c2cccc(-c3cccc(-c4cnc(CNC[C@@H]5CCC(=O)N5)c(OC)n4)c3Cl)c2Cl)cnc1CNCCNc1ccc([N+](=O)[O-])cc1` [compound 37] was run?
Its IC50 is 1.7 nM.

Which IC50 does the source give for `COCC(NCc1ncc(-c2cccc(-c3cccc(-c4cnc(CNC[C@@H]5CCC(=O)N5)c(OC)n4)c3Cl)c2Cl)nc1OC)C1CC1` (stereo partly drawn) [compound 238] here?
Its IC50 is 0.297 nM.

`COc1nc(-c2cccc(-c3cccc(-c4cnc(CN5CC(NC(C)=O)C5)c(OC)n4)c3Cl)c2Cl)cnc1CNC[C@@H]1CCC(=O)N1` [compound 369] was tested. Which IC50 did it give?
The IC50 was 0.078 nM.

For `COc1nc(-c2cccc(-c3cccc(-c4cnc(CNC[C@@H]5CCC(=O)N5)c(OC)n4)c3Cl)c2Cl)ccc1C1=NCCN1` [compound 117], which IC50 is on record?
The IC50 was 0.281 nM.

Which IC50 does the source give for `COc1nc(-c2cccc(-c3cccc(-c4cnc(CN5CC6CC5(CO)C6)c(OC)n4)c3Cl)c2Cl)cnc1CN1CC2CC1(CO)C2` [compound 477] here?
Its IC50 is 0.246 nM.

`COc1nc(-c2cccc(-c3cccc(-c4cnc(CN5CC[C@H](CO)C5)c(OC)n4)c3Cl)c2Cl)cnc1CNC[C@@H]1CCC(=O)N1` [compound 625] was tested. Which IC50 did it give?
The IC50 was 0.074 nM.

With `COc1nc(-c2cccc(-c3cccc(-c4ccc(CN5CC(O)C5)c(C#N)c4)c3Cl)c2Cl)cnc1CNC[C@@H]1CCC(=O)N1` [compound 153] as the molecule, how does the IC50 read?
The IC50 was 0.396 nM.

`COc1nc(-c2cccc(-c3cccc(-c4cnc(CNC[C@@H]5CCC(=O)N5)c(OC)n4)c3Cl)c2Cl)cnc1CNCCn1ccccc1=O` [compound 370] was tested. Which IC50 did it give?
Its IC50 is 0.064 nM.

For `COc1nc(-c2cccc(-c3cccc(-c4cnc(C5=NCC(F)(F)CN5)c(OC)n4)c3Cl)c2Cl)cnc1C1=NCC(F)(F)CN1` [compound 119], which IC50 is on record?
The IC50 was 0.115 nM.

With `COc1nc(-c2cccc(-c3cccc(-c4cnc(CN5CC(CO)C5)c(OC)n4)c3Cl)c2Cl)cnc1CNC[C@@H]1CCC(=O)N1` [compound 176] as the molecule, how does the IC50 read?
The IC50 was 0.111 nM.

How did the IC50 turn out when `COc1nc(-c2cccc(-c3cccc(-c4cnc(CNC[C@@H]5CCC(=O)N5)c(OC)n4)c3Cl)c2Cl)cnc1CNC[C@H]1CCOC1` [compound 296] was run?
Its IC50 is 0.222 nM.

With `COc1nc(-c2cccc(-c3cccc(-c4cnc(CN5CCC(C)(O)C5)c(OC)n4)c3Cl)c2Cl)cnc1CN1CCC(C)(O)C1` (stereo not drawn) [compound 146] as the molecule, how does the IC50 read?
Its IC50 is 0.13 nM.

With `COc1nc(-c2cccc(-c3cccc(-c4cnc(CNC[C@@H]5CCC(=O)N5)c(OC)n4)c3Cl)c2Cl)cnc1CNCCc1cnn[nH]1` [compound 33] as the molecule, how does the IC50 read?
The IC50 was 0.138 nM.

With `COc1nc(-c2cccc(-c3cccc(-c4cnc(CN5CC[C@@H](CO)C5)c(OC)n4)c3Cl)c2Cl)cnc1CNC[C@@H]1CCC(=O)N1` [compound 627] as the molecule, how does the IC50 read?
Its IC50 is 0.081 nM.

`COc1nc(-c2cccc(-c3cccc(-c4cnc(CN)c(OC)n4)c3Cl)c2Cl)ccc1C1=NCCN1` [compound 583] was tested. Which IC50 did it give?
Its IC50 is 0.064 nM.

Which IC50 does the source give for `COc1nc(-c2cccc(-c3cccc(-c4cnc(CNC[C@@H]5CC6(CC6)C(=O)N5)c(OC)n4)c3Cl)c2Cl)cnc1CNC[C@@H]1CC2(CC2)C(=O)N1` [compound 331] here?
The IC50 was 0.669 nM.

How did the IC50 turn out when `COc1nc(-c2cccc(-c3cccc(-c4cnc(CNCC5(O)COC5)c(OC)n4)c3Cl)c2Cl)cnc1CNCC1(O)COC1` [compound 588] was run?
The IC50 was 0.17 nM.

For `COc1nc(-c2cccc(-c3cccc(-c4cnc(CNC[C@@H]5CCC(=O)N5)c(OC)n4)c3Cl)c2Cl)cnc1CNCC(N)=O` [compound 302], which IC50 is on record?
Its IC50 is 0.089 nM.

With `COc1nc(-c2cccc(-c3cccc(-c4cnc(CN5CC(O)C5)c(OC)n4)c3Cl)c2Cl)cnc1CN1CC(O)C1` [compound 131] as the molecule, how does the IC50 read?
Its IC50 is 0.309 nM.

How did the IC50 turn out when `COc1nc(-c2cccc(-c3cccc(-c4cnc(CN5CCC[C@H]5CO)c(OC)n4)c3Cl)c2Cl)cnc1CNC[C@@H]1CCC(=O)N1` [compound 24] was run?
The IC50 was 0.179 nM.

How did the IC50 turn out when `COc1nc(-c2cccc(-c3cccc(-c4cnc(CN5CC(C(N)=O)C5)c(OC)n4)c3Cl)c2Cl)cnc1CNC[C@@H]1CCC(=O)N1` [compound 13] was run?
Its IC50 is 0.482 nM.

Which IC50 does the source give for `COc1nc(-c2cccc(-c3cccc(-c4cnc(CNC56CC(C(F)(F)F)(C5)C6)c(OC)n4)c3Cl)c2Cl)cnc1CNC[C@@H]1CCC(=O)N1` [compound 15] here?
The IC50 was 7.51 nM.

With `COc1nc(-c2cccc(-c3cccc(-c4cnc(CNC[C@H]5C[C@@](C)(O)C5)c(OC)n4)c3Cl)c2Cl)cnc1CNC[C@@H]1CCC(=O)N1` [compound 566] as the molecule, how does the IC50 read?
The IC50 was 0.13 nM.

How did the IC50 turn out when `COc1nc(-c2cccc(-c3cccc(-c4cnc(CN5CCC(c6ccncc6)C5)c(OC)n4)c3Cl)c2Cl)cnc1CNC[C@@H]1CCC(=O)N1` (stereo partly drawn) [compound 410] was run?
Its IC50 is 0.316 nM.

How did the IC50 turn out when `COc1nc(-c2cccc(-c3cccc(-c4cnc(CN5CCC([C@H](C)O)CC5)c(OC)n4)c3Cl)c2Cl)cnc1CNC[C@@H]1CCC(=O)N1` [compound 457] was run?
Its IC50 is 0.172 nM.

With `COc1nc(-c2cccc(-c3cccc(-c4cnc(CN)c(OC)n4)c3Cl)c2Cl)ccc1CN` [compound 436] as the molecule, how does the IC50 read?
Its IC50 is 5.46 nM.
